The values that follow are results of earlier work, collected in patent EP0858808B1, “Peptides for use in wound treatment” (Johnson & Johnson Medical Ltd., priority 1997, dated 2003).

The data set has as its system human fibroblast. The note with it: concentration range 2.5 mM to 25 mM.

As for Gly-Pro-Ala, the chemotactic activity entry is “no chemotactic activity”.
